# Test results from patent US20130210034A1, “COMPLEX PHOSPHOPROTEIN ACTIVATION PROFILES” (BECKMAN COULTER, INC., priority 2005, published 2013).
# B1: FMS-Like Tyrosine Kinase 3 (FLT-3) ligand (protein, UniProt P49771 27-235, looked up)
# Fms-related tyrosine kinase 3 …: TQDCSFQHSPISSDFAVKIRELSDYLLQDYPVTVASNLQDEELCGGLWRLVLAQRWMERLKTVAGSKMQGLLERVNTEIHFVTKCAFQPPPSCLRFVQTNISRLLQETSEQLVALKPWITRQNFSRCLELQCQPDSSTLPPPWSPRPLEATAPTAPQPPLLLLLLLPVGLLLLAAAWCLHWQRTRRRTPRPGEQVPPVPSPQDLLLVEH
# What was measured:
# Assay type in all cases: cell-based, human
# pERK = assay: Phosphoprotein kinetic profiles in CD34+, CD117+ cells of AML bone marrow samples; settings: for pERK Amp (peak amplitude of fold stimulation) / pERK RI (response interval): CD34^+, CD117^+ cells; for Frequency, pERK: frequency of positive-stained cells; for Positives/Negatives, pERK: ratio of positive- to negative-stained cells; for pERK response, fold greater than in healthy donor samples: SCF: AML1 and AML2, FL: AML1
# Protocol: (§1) To assess the signal transduction response after growth factor simulation, 100 to 200 μL of processed samples including about 2×10^6 WBC/100 μL were added to tubes and incubated at 37° C. for 30 minutes. For inhibition experiments, cells were incubated with 100 μM U0126, 1 μg/mL rapamycin, or both for at least 20 minutes prior to cytokine addition and in all cases for 30 min prior to formaldehyde addition. […] After stimulation the cells were immediately fixed by the addition of formaldehyde to a final concentration of 4% v/v and incubated for 10 minutes at room temperature. Following fixation, red blood cells were lysed by the addition of TRITON-X/PBS solution (0.1% v/v final concentration Triton X-100) supplemented with a 1 x phosphatase inhibitor cocktail (PIC; final concentrations: 0.2 mM sodium orthovanadate, 2 mM sodium pyrophosphate decahydrate, 2 mM [3-glycerophosphate, and 10 mM sodium fluoride) and incubation at 37° C. for 20 minutes. The incubated solution was chilled by the addition of ice-cold Wash Buffer (final concentration 1×PBS and either 4% bovine serum albumin (BSA) or 4% heat-inactivated fetal bovine serum (FBS), supplemented with 1×PIC), and the samples were centrifuged at 300 g for 6 minutes at 4° C.). If the lysis was incomplete, samples were retreated with 0.1% Triton X-100 at 37° C. for 10 to 20 minutes. After removal of the supernatant, cells were washed twice in ice-cold Wash Buffer supplemented with 1×PIC and permeabilized by the addition of pre-chilled 80% methanol while simultaneously vortexing the tube and incubated on ice for 10 minutes. Methanol was removed by centrifugation, the pellet was washed with ice-cold 1×PBS, and non-specific binding was blocked by the addition of ice-cold Wash Buffer supplemented with 1×PIC and incubation at 4° C. for a minimum of 30 minutes.
# (§2) To stain cells with fluorescent conjugated monoclonal antibodies, the incubated solution was centrifuged to remove the supernatant and the pellet was incubated for 60 minutes at 4° C. with an antibody staining solution including 0.25 μg to 0.50 μg of pS6-Pacific Blue, pERK-ALEXA 488, pSTAT5-ALEXA 647, CD34-PE, CD45-PerCP, and CD117-PC7. Samples were washed three times with ice-cold Wash Buffer supplemented with 1×PIC, resuspended in 0.5 mL ice-cold Wash Buffer supplemented with 1×PIC including 0.5 μg/mL DAPI, and analyzed by flow cytometryusing a BD LSR II Flow Cytometer, equipped with a High Throughput Sampler (HTS).
# (§3) First, doublets, aggregates, and debris were excluded by gating on single cell events in the SSC-Area versus SSC-Height histogram. Then, in events passing through this gate, debris near the origin of the FSC-Area versus SSC-Area plot (gray in FIG. 4A) was excluded by drawing a gate around an area encompassing, primarily, lymphocytes, monocytes, and granulocytes (LMG, black in FIG. 4A). Next, in cells passing through the LMG gate, the blast region (circle in FIG. 4B) was identified in the CD45 versus SSC-Area histogram (FIG. 4B). From this blast population, CD34+, CD117+ cells were identified in the CD34 versus CD117 plot (boxed area in FIG. 4C). Finally, these cells were further analyzed for cytokine-mediated increases in phosphorylation by constructing gates in the single parameter histograms (for positively and negatively stained events, i.e., for the phosphorylated and non-phosphorylated forms, respectively, of each protein) for pS6 (FIGS. 4D and 4G), pERK (FIGS. 4E and 4H), and pSTAT5 (FIGS. 4F and 4I). […] The dotted lines in each of these histograms represent unstimulated cells at t=0 min. FCS files were processed with WinList 6.0 3D (Verity Software House).
# pS6 = assay: as above; settings: for pS6 Amp (peak amplitude of fold stimulation) / pS6 RI (response interval): CD34^+, CD117^+ cells; for Frequency, pS6: frequency of positive-stained cells; for Positives/Negatives, pS6: ratio of positive- to negative-stained cells
# Protocol: as §1, §2, §3
# pSTAT5 = assay: as above
# Protocol: as §1, §2, §3
# lymphocytes = assay: Cytokine response in lymphocytes from bone marrow samples of healthy donors (Example 4); settings: lymphocytes from healthy donor bone marrow (Example 4)
# Protocol: To assess the signal transduction response after growth factor simulation, 100 to 200 μL of processed samples including about 2×10^6 WBC/100 μL were added to tubes and incubated at 37° C. for 30 minutes. For inhibition experiments, cells were incubated with 100 μM U0126, 1 μg/mL rapamycin, or both for at least 20 minutes prior to cytokine addition and in all cases for 30 min prior to formaldehyde addition. […] After stimulation the cells were immediately fixed by the addition of formaldehyde to a final concentration of 4% v/v and incubated for 10 minutes at room temperature. […]
# First, doublets, aggregates, and debris were excluded by gating on single cell events in the SSC-Area versus SSC-Height histogram. […] Finally, these cells were further analyzed for cytokine-mediated increases in phosphorylation by constructing gates in the single parameter histograms (for positively and negatively stained events, i.e., for the phosphorylated and non-phosphorylated forms, respectively, of each protein) for pS6 (FIGS. 4D and 4G), pERK (FIGS. 4E and 4H), and pSTAT5 (FIGS. 4F and 4I). […] Following this gating scheme, data were analyzed by calculating the area under the curve (AUC), the frequency of positive-stained cells, and the median fluorescence intensity (MFI).
molecule,measurement,setting,value
Granulocyte-Macrophage Colony-Stimulating Factor [GM-CSF],pERK Amp (peak amplitude of fold stimulation),pERK; AML1 sample (Example 6),6
same,pERK RI (response interval),pERK; AML1 sample (Example 6),10 min
same,pS6 Amp (peak amplitude of fold stimulation),pS6; AML1 sample (Example 6),1
same,pS6 RI (response interval),pS6; AML1 sample (Example 6),20 min
same,pSTAT5 Amp (peak amplitude of fold stimulation),pSTAT5; AML1 sample (Example 6),110
same,pSTAT5 RI (response interval),pSTAT5; AML1 sample (Example 6),>60 min
Stem Cell Factor [SCF],pERK Amp (peak amplitude of fold stimulation),pERK; AML1 sample (Example 6),1600
same,pERK RI (response interval),pERK; AML1 sample (Example 6),30 min
same,pERK Amp (peak amplitude of fold stimulation),pERK; AML2 sample (Example 6),1300
same,pERK RI (response interval),pERK; AML2 sample (Example 6),20 min
same,"Fold Stimulation, AML to NBM ratio (pERK)AML1/(pERK)D6-9",pERK; SCF-stimulated,30
same,"Fold Stimulation, AML to NBM ratio (pERK)AML2/(pERK)D6-9",pERK; SCF-stimulated,25
same,"Frequency, AML to NBM ratio (pERK)AML1/(pERK)D6-9",pERK; SCF-stimulated,1.1
same,"Frequency, AML to NBM ratio (pERK)AML2/(pERK)D6-9",pERK; SCF-stimulated,1.1
same,"MFI, AML to NBM ratio (pERK)AML1/(pERK)D6-9",pERK; SCF-stimulated,0.41
same,"MFI, AML to NBM ratio (pERK)AML2/(pERK)D6-9",pERK; SCF-stimulated,0.35
same,"Positives/Negatives, AML to NBM ratio (pERK)AML1/(pERK)D6-9",pERK; SCF-stimulated,2.0
same,"Positives/Negatives, AML to NBM ratio (pERK)AML2/(pERK)D6-9",pERK; SCF-stimulated,1.5
same,"Fold Stimulation, pERK","pERK; SCF-stimulated, AML1",1600
same,"MFI, pERK","pERK; SCF-stimulated, AML1",1500
same,"Frequency, pERK","pERK; SCF-stimulated, AML1",88
same,"Positives/Negatives, pERK","pERK; SCF-stimulated, AML1",10
same,"Fold Stimulation, pERK","pERK; SCF-stimulated, AML2",1300
same,"MFI, pERK","pERK; SCF-stimulated, AML2",1300
same,"Frequency, pERK","pERK; SCF-stimulated, AML2",90
same,"Positives/Negatives, pERK","pERK; SCF-stimulated, AML2",7.4
same,"frequency of positively stained cells at its maximum, pERK","pERK; SCF-stimulated, AML samples",approximately 90%
same,"pERK response, fold greater than in healthy donor samples",pERK,approximately 10 fold
same,pS6 Amp (peak amplitude of fold stimulation),pS6; AML1 sample (Example 6),1100
same,pS6 RI (response interval),pS6; AML1 sample (Example 6),30 min
same,pS6 Amp (peak amplitude of fold stimulation),pS6; AML2 sample (Example 6),620
same,pS6 RI (response interval),pS6; AML2 sample (Example 6),30 min
same,"Fold Stimulation, AML to NBM ratio (pS6)AML1/(pS6)D6-9",pS6; SCF-stimulated,110
same,"Fold Stimulation, AML to NBM ratio (pS6)AML2/(pS6)D6-9",pS6; SCF-stimulated,62
same,"Frequency, AML to NBM ratio (pS6)AML1/(pS6)D6-9",pS6; SCF-stimulated,3.7
same,"Frequency, AML to NBM ratio (pS6)AML2/(pS6)D6-9",pS6; SCF-stimulated,3.7
same,"MFI, AML to NBM ratio (pS6)AML1/(pS6)D6-9",pS6; SCF-stimulated,3.0
same,"MFI, AML to NBM ratio (pS6)AML2/(pS6)D6-9",pS6; SCF-stimulated,2.3
same,"Positives/Negatives, AML to NBM ratio (pS6)AML1/(pS6)D6-9",pS6; SCF-stimulated,80
same,"Positives/Negatives, AML to NBM ratio (pS6)AML2/(pS6)D6-9",pS6; SCF-stimulated,52
same,"Fold Stimulation, pS6","pS6; SCF-stimulated, AML1",1100
same,"MFI, pS6","pS6; SCF-stimulated, AML1",3100
same,"Frequency, pS6","pS6; SCF-stimulated, AML1",96
same,"Positives/Negatives, pS6","pS6; SCF-stimulated, AML1",35
same,"Fold Stimulation, pS6","pS6; SCF-stimulated, AML2",620
same,"MFI, pS6","pS6; SCF-stimulated, AML2",2400
same,"Frequency, pS6","pS6; SCF-stimulated, AML2",97
same,"Positives/Negatives, pS6","pS6; SCF-stimulated, AML2",23
same,"frequency of positively stained cells at its maximum, pS6","pS6; SCF-stimulated, AML samples",~97%
same,pSTAT5 Amp (peak amplitude of fold stimulation),pSTAT5; AML1 sample (Example 6),32
same,pSTAT5 Amp (peak amplitude of fold stimulation),pSTAT5; AML2 sample (Example 6),2
same,pSTAT5 RI (response interval),pSTAT5; AML2 sample (Example 6),6 min
same,Phosphorylation response in lymphocytes,lymphocytes,lack of SCF's effect
B1,pERK Amp (peak amplitude of fold stimulation),pERK; AML1 sample (Example 6),460
same,pERK RI (response interval),pERK; AML1 sample (Example 6),30 min
same,"pERK response, fold greater than in healthy donor samples",pERK,approximately 10 fold
same,pS6 Amp (peak amplitude of fold stimulation),pS6; AML1 sample (Example 6),140
same,pS6 RI (response interval),pS6; AML1 sample (Example 6),30 min
same,pSTAT5 Amp (peak amplitude of fold stimulation),pSTAT5; AML1 sample (Example 6),2
same,pSTAT5 RI (response interval),pSTAT5; AML1 sample (Example 6),2 min
same,Phosphorylation response in lymphocytes,lymphocytes,no response
